Results reported in publication PMC8903780, “Therapeutic efficacy of an injectable formulation of purinostat mesylate in SU-DHL-6 tumour model” (Annals of Medicine, 2022).
Where a name gives a salt, the structure may show the parent alone. Read-outs that look alike come from different tables or passages of the source. Marks after values point to notes of the source that are not given here.

What was measured:
[1] = tested on: human double-hit lymphoma SU-DHL-6 xenograft tumours; format: in vivo
Method: (§1) To better determine the anti-tumour activity of the PM/HP-β-CD complex, the SU-DHL-6 cell line xenografts were established in immunodeficiency mice. The NOD/SCID mice were subcutaneously inoculated 7 × 10^6 cells per mouse. […] A mimic of HyperCVAD regimen, standard chemotherapy for B cell lymphoma ([22],[23]), especially aggressive subtypes, for example, double-hit lymphoma, was set as a positive control group for comparison (Table 2). Satellite groups were set up in the 10 mg/kg group, 20 mg/kg group, and the Hyper-CVAD group. Animals in the satellite groups were not sacrificed at the end of the treatment and underwent long-term treatment for further investigation. In the survival study, the animal mortality criterion was that the tumour volume reached 3000 mm^3 or the individual animal died, and the animal survival time was statistically analysed.
When the experimental period was over, the tumour was weighed and photographed, the main organs and tumours were collected, fixed, and embedded in paraffin for Histological and immunohistochemical analysis.

SU-DHL-6 cells [2] = assay: Annexin V-FITC/PI flow cytometry apoptosis assay; format: cell-based, human; conditions: 48 h
Method: The pro-apoptotic effect of the PM/HP-β-CD complex on SU-DHL-6 cells was investigated by flow cytometry. […] cells in good condition were collected and inoculated in the six-well plate with 2⋄10^5 cells per well. After being cultured for 24 h, cells were treated with PM and PM/HP-β-CD inclusion at 3 nM and 6 nM, using LBH589 at 6 nM as the positive control. The cells without drug treatment were the negative control. After 48 h incubation, the cells were then processed by annexin V-FITC/PI staining as the manufacturer’s instructions (KeyGen, 100 assays).

[3] = tested on: acetyl histone H4 (Ac-H4); assay: Immunohistochemical detection of Ac-H4 in tumour tissue; format: in vivo, NOD/SCID mice; conditions: immunostaining after PM treatment, SU-DHL-6 subcutaneous tumour
Text: (§2) The proliferation of tumour cells was detected by immune histochemical staining with the primary antibody of Ki-67 (Lab Vision, MA, USA). DNA double-stranded breaks were investigated by staining with the primary antibody of H2A histone family member X (γH2AX, Upstate Biotechnology, Lake Placid, NY, USA). Primary antibodies of acetyl histone H4 (Ac-H4, Upstate Biotechnology, Lake Placid, NY, USA) were used to detect the acetylation of Histone H4. FITC-labelled secondary antibodies (F-0382; Sigma) were applied with a concentration of 1:500. The images were taken with the Nikon E800 scope.

[4] = tested on: SU-DHL-6 subcutaneous tumours; assay: Survival study in satellite groups of the SU-DHL-6 subcutaneous model; format: in vivo, NOD/SCID mice; conditions: long-term treatment, death criterion tumour volume 3000 mm^3 or death
Method: as §1

[5] = In vivo pharmacokinetics after oral or intravenous administration; conditions: SD rats, 10 mg/kg; for Cmax: read-out: maximum value (Cmax) of plasma concentration
Method: Adult SD rats (180–220 g) were used to investigate the in vivo kinetics of PM after oral or intravenous administration. The rats were fasted overnight and divided into oral and intravenous groups, containing three male and three female rats in each group. Then, 10 mg/kg of PM was administered in each rat. 0.2 mL of jugular vein blood samples were collected at a predetermined time interval of 0, 5, 15, 30, 60, 120, 240, 360, 480, and 600 min, centrifuged at 1500 rpm for 15 min at 4 °C to separate the plasma, and stored at −80 °C for the analysis by UPLC-MS. After the test, Phoenix WinNonlin software and non-compartmental analysis were used to calculate parameters such as maximum plasma concentration (Cmax), plasma clearance (CL), time to achieve maximum plasma concentration (Tmax), steady-state apparent distribution volume (Vdss), elimination half-life (t1/2), area under the concentration-time curve (AUC), and related bioavailability.

[6] = Phase solubility analysis of PM in HP-β-CD solutions; format: physicochemical; conditions: inclusion of PM by HP-β-CD
Method: Excess PM were added into 6 mL HP-β-CD solutions ranged from 0 to 150 mg/mL [14, 19]. The mixture solution was stirred at 1000 rpm for 24 h at 37 °C and filtered using 0.22 μm Millipore filtration. The apparent solubility of PM was calculated, and the stability constant (Ks) was calculated as the Higuchi-Connors equation, Equation (a). The Gibbs free energy (ΔG) was calculated as Equation (b), R represents the general gas constant and T represents the Kelvin temperature. (a) Ks=slope/(S0×(1–slope)) (b) ΔG=−RTlnKs

γH2AX = assay: Immunohistochemical detection of γH2AX in tumour tissue; format: in vivo, NOD/SCID mice; conditions: immunostaining after PM treatment, SU-DHL-6 subcutaneous tumour
Text: as §2

SU-DHL-6 cells [7] = assay: In vitro cytotoxicity study (MTT); format: cell-based; conditions: Homo sapiens, 48 h
Method: To investigate the anti-tumour proliferation effect of PM/HP-β-CD, in vitro cytotoxicity test was performed. After being seeded with 96-well plates, the in vitro cultured cells were allowed to acclimate for about 1 h. The experimental group was added with 100 μL of medium containing free PM, HP-β-CD, or PM/HP-β-CD with different concentrations, and the control group was added with an equal volume of fresh medium. Each group was set up with 3 parallel holes and a cultured incubator with 5% CO2 at 37 °C. At 48 h, the survival rate of each group was calculated with the MTT method, and the IC50 value was fitted.

Ki-67 = assay: Immunohistochemical detection of Ki-67 in tumour tissue; format: in vivo, NOD/SCID mice; conditions: immunostaining after PM treatment, SU-DHL-6 subcutaneous tumour
Text: as §2

[8] = tested on: human double-hit lymphoma SU-DHL-6 cell line xenografts; assay: Oral versus intravenous administration study in SU-DHL-6 xenografts; conditions: for Number End/begin / RTV / Tumor Weight (g) X ±SD / Tumor Weight Inhibition (%) / Tumor volume T/C% / animal status / deaths: 16 days; for Body weight (g) X ± SD Begin / Tumor volume (mm^3) X ±SD Begin: begin of treatment; for Body Weight (g) X ±SD End / Tumor volume (mm^3) X ±SD End: end of 16 days treatment; for animal status / deaths: 10 mg/kg
Method: To determine whether PM is suitable for oral or intravenous administration, the anti-tumor activity and the safety were investigated in a human double-hit lymphoma SU-DHL-6 cell line xenografts established in immunodeficiency mice. Each mouse was injected subcutaneously with 0.1 mL of cell suspension containing 1×10^6 cells. […] Tumor size and body weight were measured during the experimental period and the tumor volumes were calculated according to the formula: volume (mm^3) = length × width^2 × 0.5. When the experimental period was over, all the mice were sacrificed, and the tumor was weighed and photographed.

[9] = positive control groups, dose column – (RTX 10 mg/kg), 14 days
[10] = positive control groups, dose column – (RTX 10 mg/kg), begin of treatment
[11] = positive control groups, dose column – (RTX 10 mg/kg), end of 14 days treatment
[12] = positive control groups, dose column – (RTX 10 mg/kg), regimens Table 2, 14 days
[13] = both sexes, rat, plasma, intravenous administration
[14] = both sexes, rat, plasma, oral administration

## Cc1[nH]c2ccccc2c1CCNCc1ccc(/C=C/C(=O)NO)cc1 [LBH589, reference compound]
[1]; [9]
  RTV: 26.54
  Tumour volume T/C%: 101.83%
  Tumour weight (g) X ± SD: 3.81 ± 1.08 g
  Tumour weight Inhibition (%): 22.72%
[1]; [10]
  Tumour volume (mm^3) X ± SD Begin: 152.7 ± 30.6 mm^3
[1]; [11]
  Tumour volume (mm^3) X ± SD End: 4015.5 ± 1048.0 mm^3
[1]; [12]
  Number End/begin: 7/7
SU-DHL-6 cells [2]; 6 nM
  apoptotic SU-DHL-6 cells: 60.1%

## CN(Cc1nc2c(N3CCOCC3)nc(-c3ccc(N)cc3)nc2n1C)c1ncc(C(=O)NO)cn1 [PM, Purinostat mesylate]
[3]
  expression of Ac-H4 in tumour tissue: increased
[4]; PM for Injection 10 mg/kg
  Median survival (day): 30^bei day
[4]; PM for Injection 20 mg/kg
  Median survival (day): 30 ^bei day
[5]; p.o.
  CL: 437 ± 197.44 L/h/kg
[5]; both sexes, rat, plasma, iv
  Tmax: 4.67 min
  clearance: 225 mL/min/kg
  half-life: 20.4 ± 19.7 min
[5]; both sexes, rat, plasma, po
  Tmax: 5.67 min
  half-life: 97.2 ± 41.5 min
[5]; [13]
  AUC: 837 ± 277 ng·h/mL
  Cmax: 3140 ± 1320 ng/mL
[5]; [14]
  AUC: 56.2 ± 24.6 ng·h/mL
  Cmax: 49.3 ± 26.4 ng/mL
[5]; both sexes, rat, plasma, oral versus intravenous, read-out: calculated bioavailability
  bioavailability: 6.71%
[1]; mouse, in vivo, iv, 2.5 mg/kg
  Body weight (g) X ± SD Begin: 22.0 ± 0.3 g
  Number End/begin: 7/7
  RTV: 14.21^begkmp
  Tumour volume (mm^3) X ± SD Begin: 140.3 ± 23.7 mm^3
  Tumour volume (mm^3) X ± SD End: 1970.1 ± 638.3 mm^3
  Tumour volume T/C%: 54.53%
  Tumour weight (g) X ± SD: 2.10 ± 0.98^cekmp g
  Tumour weight Inhibition (%): 57.35%
[1]; mouse, in vivo, iv, 5 mg/kg
  Body weight (g) X ± SD Begin: 22.3 ± 0.5 g
  Number End/begin: 7/7
  RTV: 8.26^cfiloq
  Tumour volume (mm^3) X ± SD Begin: 146.2 ± 26.5 mm^3
  Tumour volume (mm^3) X ± SD End: 1150.0 ± 510.6 mm^3
  Tumour volume T/C%: 31.69%
  Tumour weight (g) X ± SD: 1.39 ± 0.47^cfhlnr g
  Tumour weight Inhibition (%): 71.80%
[1]; mouse, in vivo, iv, 10 mg/kg
  Body weight (g) X ± SD Begin: 22.3 ± 0.5 g
  Number End/begin: 7/7
  RTV: 7.39 ^cfiloq
  Tumour volume (mm^3) X ± SD Begin: 150.9 ± 32.6 mm^3
  Tumour volume (mm^3) X ± SD End: 1084.2 ± 502.8 mm^3
  Tumour volume T/C%: 28.37%
  Tumour weight (g) X ± SD: 0.90 ± 0.43^cfilor g
  Tumour weight Inhibition (%): 81.67%
[1]; mouse, in vivo, iv, 20 mg/kg
  Body weight (g) X ± SD Begin: 22.2 ± 0.3 g
  Number End/begin: 7/7
  RTV: 4.31^cfilor
  Tumour volume (mm^3) X ± SD Begin: 158.9 ± 22.6 mm^3
  Tumour volume (mm^3) X ± SD End: 664.3 ± 190.7 mm^3
  Tumour volume T/C%: 16.53%
  Tumour weight (g) X ± SD: 0.73 ± 0.28 ^cfilor g
  Tumour weight Inhibition (%): 85.20%
[6]
  Gibbs free energy: -21.15 kJ/mol
γH2AX
  expression of γH2AX in tumour tissue: increased
SU-DHL-6 cells [2]; 3 nM
  apoptotic SU-DHL-6 cells: 14.99%
SU-DHL-6 cells [2]; 6 nM
  apoptotic SU-DHL-6 cells: 55.2%
SU-DHL-6 cells [7]
  IC50: 1.88 nM
Ki-67
  expression of Ki-67 in tumour tissue: decreased
[8]; i.v. 10 mg/kg (PM/HP-β-CD)
  Number End/begin: 8/8
  RTV: 6.84^cfi
  Tumor Weight (g) X ±SD: 1.51±0.49^cfi g
  Tumor Weight Inhibition (%): 69.96%
  Tumor volume T/C%: 30.87%
  Body weight (g) X ± SD Begin: 22.6 ± 1.7 g
  Tumor volume (mm^3) X ±SD Begin: 194.6±26.1 mm^3
  Body Weight (g) X ±SD End: 24.9 ± 1.9 g
  Tumor volume (mm^3) X ±SD End: 1321.9±317.2 mm^3
[8]; oral group
  animal status / deaths: one of the PM oral groups died
[8]; p.o. 10 mg/kg (PM suspension)
  Number End/begin: 7/8
  RTV: 16.71^a
  Tumor Weight (g) X ±SD: 4.57 ± 0.99 g
  Tumor Weight Inhibition (%): 9.16%
  Tumor volume T/C%: 75.46%
  Body weight (g) X ± SD Begin: 21.6 ± 1.2 g
  Tumor volume (mm^3) X ±SD Begin: 199.5±22.5 mm^3
  Body Weight (g) X ±SD End: 24.9 ± 3.0 g
  Tumor volume (mm^3) X ±SD End: 3300.6±715.1 mm^3
[8]; venous group
  animal status / deaths: did not have animals in abnormal status

## Rituximab [RTX, reference compound]
[1]; [9]
  RTV: 24.16
  Tumour volume T/C%: 92.71%
  Tumour weight (g) X ± SD: 3.47 ± 1.07^ad g
  Tumour weight Inhibition (%): 29.47%
[1]; [10]
  Body weight (g) X ± SD Begin: 22.4 ± 0.4 g
  Tumour volume (mm^3) X ± SD Begin: 153.7 ± 33.1 mm^3
[1]; [11]
  Body Weight (g) X ±SD End: 25.1 ± 1.0 g
  Tumour volume (mm^3) X ± SD End: 3505.3 ± 917.1 mm^3
[1]; [12]
  Number End/begin: 7/7
